{"source": "patent US20040186274A1", "about": "“Methylation of histone h4 at arginine 3” (priority 2001, published 2004)", "test_system": "H4-Arg 3 methylation in HeLa cells", "assay": "TSA treatment of HeLa cells, methylation state of H4-Arg 3 in isolated core histones", "type": "cell-based, human", "conditions": "twelve hours after TSA treatment, hyperacetylated H4", "description": "To determine whether this inhibition occurs in vivo, HeLa cells were treated with a histone deacetylase inhibitor, Tricostatin A (TSA), to induce hyperacetylation. Twelve hours after TSA treatment, core histones were isolated, and the methylation state of H4-Arg 3 was analyzed. […] Therefore, hyperacetylation on lysine residues correlates with hypomethylation of H4 Arg 3.", "data": [{"smiles": "CC(/C=C/C(=O)NO)=C\\[C@@H](C)C(=O)c1ccc(N(C)C)cc1", "note": "[Tricostatin A]", "values": [{"measurement": "H4 Arg 3 methylation level", "result": "almost undetectable"}]}]}
